Assay results reported in PubChem BioAssay (NCI).
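Values below derive from 48-hour exposures of cells grown in 96-well plates, with endpoints linearly interpolated between the two concentrations bracketing the appropriate inhibition level. GI50: concentration for 50% inhibition of growth. At the TGI there is no net growth.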

Assays:
Experiment in all cases: NCI-60 cell line screen, 48 h
A549 NSCLC = tested on: A549 NSCLC
EKVX NSCLC = tested on: EKVX NSCLC
K-562 leukemia = tested on: K-562 leukemia
LOX IMVI melanoma = tested on: LOX IMVI melanoma
MCF7 breast = tested on: MCF7 breast
MDA-MB-231 breast = tested on: MDA-MB-231 breast
MDA-MB-435 = tested on: MDA-MB-435
OVCAR-3 ovarian = tested on: OVCAR-3 ovarian
SK-MEL-2 melanoma = tested on: SK-MEL-2 melanoma
TK-10 renal = tested on: TK-10 renal

Row | SMILES | GI50 (A549 NSCLC) [µM] | TGI (A549 NSCLC) [µM] | GI50 (EKVX NSCLC) [µM] | TGI (EKVX NSCLC) [µM] | GI50 (K-562 leukemia) [µM] | TGI (K-562 leukemia) [µM] | GI50 (LOX IMVI melanoma) [µM] | TGI (LOX IMVI melanoma) [µM] | GI50 (MCF7 breast) [µM] | TGI (MCF7 breast) [µM] | GI50 (MDA-MB-231 breast) [µM] | TGI (MDA-MB-231 breast) [µM] | GI50 (MDA-MB-435) [µM] | TGI (MDA-MB-435) [µM] | GI50 (OVCAR-3 ovarian) [µM] | TGI (OVCAR-3 ovarian) [µM] | GI50 (SK-MEL-2 melanoma) [µM] | TGI (SK-MEL-2 melanoma) [µM] | GI50 (TK-10 renal) [µM] | TGI (TK-10 renal) [µM]
1 | O=C(O)CN(CCN(CC(=O)O)CC(=O)O)CC(=O)O.[Cu+2].[Na+] | > 100 | > 100 | > 100 | > 100 | > 100 | > 100 | > 100 | > 100 | > 100 | > 100 | > 100 | > 100 | > 100 | > 100 | 19.2 | 51.8 | > 100 | > 100 | > 100 | > 100
2 | CC1=C(\C=C/C(C)=C/C=C/C(C)=C/C=C/C=C(C)\C=C\C=C(C)/C=C/C2=C(C)CCCC2(C)C)C(C)(C)CCC1 |  |  |  |  |  | > 100 |  | > 100 |  | > 100 |  | > 100 |  | > 100 |  | > 100 |  | > 100 |  | > 100
3 | O=C(O)CCCCCNCc1cc2cc3c(cc2c2cc(OCc4ccccc4)ccc12)OCO3 | 1.55 | 3.17 | 4.01 | 17.9 |  |  | 1.62 | 3.1 | 1.68 | 3.21 | 1.88 | 3.88 | 1.78 | 3.3 | 2.11 | 5.06 | 2.22 | 4.6 | 2.63 | 5.99
4 | CO[C@H]1C[C@H](O[C@H]2CC[C@@]3(C)[C@H](CC[C@@H]4[C@@H]3CC[C@]3(C)[C@@H](C5=CC(=O)OC5)CC[C@]43O)C2)O[C@H](C)[C@H]1O |  | < 0.0118 |  | 0.0148 |  |  |  | 0.0159 |  | 0.134 |  | 0.412 |  | 0.0974 |  | < 0.0194 |  | 0.0478 |  | 0.0482
5 | COc1cc(/C=N\Nc2ccccc2)ccc1OC(=O)c1ccccc1 | 4.01 | 37.5 |  |  | 0.369 | 11.8 | 0.296 | 4.57 | 1.57 | 23.7 | 1.91 | 32.2 | 1.25 | > 100 | 4.19 | > 68.9 | 2.1 | 60 | 16.5 | 68.3
6 | ClC/C=C/CSc1ncnc2nc[nH]c12 |  |  | > 100 | > 100 | > 100 | > 100 | > 100 | > 100 | > 100 | > 100 | > 100 | > 100 | > 100 | > 100 | > 100 | > 100 |  |  |  | 
7 | O=C1c2ccc3c4c(ccc(c24)C(=O)N1CCCCO)C(=O)N(CCCCO)C3=O | 1.93 | 6.65 |  |  | 2.54 | > 100 | 1.35 | 3.58 | 1.43 | 3.84 | 2.9 | 97.9 | 1.46 | 2.86 | 0.408 | 2.31 | 1.84 | 6.88 | 5.29 | 32.5
8 | OC[C@H]1C[C@](O)(c2ccccc2Cl)[C@@H](c2ccccc2Cl)O1 | 22.9 | 58.1 | 19.2 | 52.2 | 20 | 56.9 | 16.9 | 34.3 | 27 | 62.6 | 18.6 | 47.6 | 16.3 | 33.3 | 19.5 | 47.5 |  |  | 20.9 | 64.7
